Molecules are shown by their SMILES.

For 22 molecules, IC50 results are on record in US20150225369A1, “DDR2 INHIBITORS FOR THE TREATMENT OF OSTEOARTHRITIS” (Merck Patent GmbH, priority 2012, published 2015).

The target in the experiment is T1, HEK293 transfected with human DDR2 (Homo sapiens, UniProt Q16832).
T1 construct: expressed in transfected cells; host or cells: HEK293 (PLT460F_(DDR2)-P7-1)
T1 sequence (Q16832 22-855): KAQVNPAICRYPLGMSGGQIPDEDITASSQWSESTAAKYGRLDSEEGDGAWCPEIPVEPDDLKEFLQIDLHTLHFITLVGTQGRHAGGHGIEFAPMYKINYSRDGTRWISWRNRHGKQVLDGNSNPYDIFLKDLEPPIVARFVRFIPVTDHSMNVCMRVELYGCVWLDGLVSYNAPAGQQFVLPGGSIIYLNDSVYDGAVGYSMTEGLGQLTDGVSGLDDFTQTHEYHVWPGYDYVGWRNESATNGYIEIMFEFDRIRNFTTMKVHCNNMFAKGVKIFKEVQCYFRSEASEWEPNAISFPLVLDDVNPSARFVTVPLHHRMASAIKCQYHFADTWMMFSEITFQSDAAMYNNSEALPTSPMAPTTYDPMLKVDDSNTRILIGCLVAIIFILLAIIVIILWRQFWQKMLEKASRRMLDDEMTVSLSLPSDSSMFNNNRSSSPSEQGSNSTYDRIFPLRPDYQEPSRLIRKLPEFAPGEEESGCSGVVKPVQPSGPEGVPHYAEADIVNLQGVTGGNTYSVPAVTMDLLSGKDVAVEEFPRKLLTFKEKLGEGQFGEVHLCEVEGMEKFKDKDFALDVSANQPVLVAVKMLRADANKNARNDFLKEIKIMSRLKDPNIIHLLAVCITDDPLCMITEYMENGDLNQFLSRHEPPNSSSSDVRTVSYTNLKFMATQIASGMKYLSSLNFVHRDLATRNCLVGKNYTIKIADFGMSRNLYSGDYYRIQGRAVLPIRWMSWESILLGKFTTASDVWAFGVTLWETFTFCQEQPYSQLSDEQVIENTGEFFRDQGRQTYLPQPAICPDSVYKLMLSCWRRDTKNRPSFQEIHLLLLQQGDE
Kind of experiment: Phospho-DDR2 cellular assay (collagen II induced DDR2 phosphorylation, ELISA). In kind it is cell-based. Conditions: cellular phospho-DDR2; read-out: IC50 [p-DDR2]. As for the experimental part: Assays were performed in a 384 well plate format, using cell line HEK293 transfected with human DDR2 (PLT460F_(DDR2)-P7-1)
Cells were seeded at a density of 10'000 cells/well in 384well poly-D-lysine coated Black/clear plate (Cellcoat Greiner) and incubated in DMEM medium in the presence of 10% fetal bovine serum at 37° C., 5% CO2 for 48 h. Medium was replaced by serum-free medium and cells were incubated at 37° C., 5% CO2 for 8 h. Compound to be tested in 5% DMSO or 5% DMSO and 50 μg/ml of chicken collagen II were added and cells were incubated at 37° C., 5% CO2 for 16 h
Cells were rinsed with ice-cold PBS, lysed with lysis buffer (M-PER Thermo #78501) for 30 min at room temperature and centrifuged for 1 min at 1000 RPM. In parallel, White High binding 384 well plates (Corning) were coated with mouse anti-human DDR2 capture antibody (R&D Systems kit DuoSet IC Human phospho-DDR2 ELISA), overnight at RT.
An aliquot of cell lysate was transferred to the coated plates and incubated for 2 h at RT. Plates were washed and mouse anti-phospho-tyrosine detection antibody (R&D Systems kit DuoSet IC Human phospho-DDR2 ELISA) conjugated to horse radish peroxidase (HRP) was added for 2 h at RT. Plates were washed and chemiluminescent substrate for HRP (Thermo) was added for 15 min at RT. Luminescence was measured on a luminometer.

Consider `CNC(=O)c1cc(Oc2ccc(CNC(=O)Nc3cc(C(F)(F)F)ccc3-n3ccnn3)cc2C)ccn1` [compound 203, 4-{2-Methyl-4-[3-(2-[1,2,3]triazol-1-yl-5-trifluoromethyl-phenyl)-ureidomethyl]-phenoxy}-pyridine-2-carboxylic acid methylamide], for which the IC50 was found to be 0.019 µM.

As for `CNC(=O)c1cc(Oc2ccc(CNC(=O)Nc3cc(C(F)(F)F)ccc3O)cc2C)ccn1` [compound 204, 4-{4-[3-(2-Hydroxy-5-trifluoromethyl-phenyl)-ureidomethyl]-2-methyl-phenoxy}-pyridine-2-carboxylic acid methylamide], the IC50 was 0.038 µM.

On to `CNC(=O)c1cc(Oc2ccc(CNC(=O)N3C(=O)Cc4ccc(C(F)(F)F)cc43)cc2)ccn1` [compound 205, 2-Oxo-6-trifluoromethyl-2,3-dihydro-indole-1-carboxylic acid 4-(2-methylcarbamoyl-pyridin-4-yloxy)-benzylamide], for which the IC50 was 1.1 µM.

In the case of `CNC(=O)c1cc(Oc2ccc(CNC(=O)Nc3cc(C(F)(F)F)ccc3-n3ccnn3)cc2)ccn1` [compound 206, 4-{4-[3-(2-[1,2,3]Triazol-1-yl-5-trifluoromethyl-phenyl)-ureidomethyl]-phenoxy}-pyridine-2-carboxylic acid methylamide], the IC50 is 0.031 µM.

For the molecule `CNC(=O)c1cc(Oc2ccc(CNC(=O)Nc3cc(C(F)(F)F)ccc3CC(N)=O)cc2C)ccn1` [compound 207, 4-{4-[3-(2-Carbamoylmethyl-5-trifluoromethyl-phenyl)-ureidomethyl]-2-methyl-phenoxy}-pyridine-2-carboxylic acid methylamide], the IC50 was 0.285 µM.

On to `CNC(=O)c1cc(Oc2ccc(CNC(=O)Nc3cc(C(F)(F)F)ccc3CN3CCNCC3=O)cc2)ccn1` [compound 208, 4-(4-{3-[2-(2-Oxo-piperazin-1-ylmethyl)-5-trifluoromethyl-phenyl]-ureidomethyl}-phenoxy)-pyridine-2-carboxylic acid methylamide], for which the IC50 is 0.855 µM.

For the molecule `CNC(=O)c1cc(Oc2ccc(CNC(=O)Nc3cc(C(F)(F)F)ccc3CC(N)=O)cc2)ccn1` [compound 209, 4-{4-[3-(2-Carbamoylmethyl-5-trifluoromethyl-phenyl)-ureidomethyl]-phenoxy}-pyridine-2-carboxylic acid methylamide], the IC50 amounted to 0.985 µM.

Take `CNC(=O)c1cc(Oc2ccc(CNC(=O)Nc3cc(C(F)(F)F)ccc3CNC(C)=O)cc2C)ccn1` [compound 214, 4-(4-{3-[2-(Acetylamino-methyl)-5-trifluoromethyl-phenyl]-ureidomethyl}-2-methyl-phenoxy)-pyridine-2-carboxylic acid methylamide]: the IC50 was 0.045 µM.

As to `CNC(=O)c1cc(Oc2ccc(CNC(=O)Nc3cc(C)c(Cl)cc3-n3cccc3)cc2)ccn1` [compound 219, 4-{4-[3-(4-Chloro-5-methyl-2-pyrrol-1-yl-phenyl)-ureidomethyl]-phenoxy}-pyridine-2-carboxylic acid methylamide], the 50% inhibitory concentration (IC50) stood at 0.114 µM.

`CNC(=O)c1cc(Oc2ccc(CNC(=O)Nc3cc(C(F)(F)F)ccc3CC(=O)O)cc2C)ccn1` [compound 220, (2-{3-[3-Methyl-4-(2-methylcarbamoyl-pyridin-4-yloxy)-benzyl]-ureido}-4-trifluoromethyl-phenyl)-acetic acid]: the IC50 came out at 23.5 µM.

Consider `CNC(=O)c1cc(Oc2ccc(CNC(=O)Nc3cc(C(F)(F)F)ccc3CN)cc2C)ccn1` [compound 221, 4-{4-[3-(2-Aminomethyl-5-trifluoromethyl-phenyl)-ureidomethyl]-2-methyl-phenoxy}-pyridine-2-carboxylic acid methylamide], for which the IC50 was found to be 0.18 µM.

`CNC(=O)c1cc(Oc2ccc(CNC(=O)Nc3nnc(C(F)(F)F)s3)cc2)ccn1` [compound 222, 4-{4-[3-(5-Trifluoromethyl-[1,3,4]thiadiazol-2-yl)-ureidomethyl]-phenoxy}-pyridine-2-carboxylic acid methylamide]: the IC50 was 0.575 µM.

As for `CNC(=O)c1cc(Oc2ccc(CNC(=O)Nc3cc(C(C)(C)C)n[nH]3)cc2)ccn1` [compound 223, 4-{4-[3-(5-tert-Butyl-2H-pyrazol-3-yl)-ureidomethyl]-phenoxy}-pyridine-2-carboxylic acid methylamide], the IC50 was 7.95 µM.

As for `CNC(=O)c1cc(Oc2ccc(CNC(=O)Nc3ccc(N4CCOCC4=O)c(Cl)c3)cc2)ccn1` [compound 225, 4-(4-{3-[3-Chloro-4-(3-oxo-morpholin-4-yl)-phenyl]-ureidomethyl}-phenoxy)-pyridine-2-carboxylic acid methylamide], the half-maximal inhibitory concentration (IC50) is 8.8 µM.

`CNC(=O)c1cc(Oc2ccc(CNC(=O)Nc3cccc(N(C)C)c3)cc2)ccn1` [compound 228, 4-{4-[3-(3-Dimethylamino-phenyl)-ureidomethyl]-phenoxy}-pyridine-2-carboxylic acid methylamide]: the half-maximal inhibitory concentration (IC50) was 1.5 µM.

As for `CNC(=O)c1cc(Oc2ccc(CNC(=O)Nc3cccc(C(F)(F)F)c3)cc2F)ccn1` [compound 233, 4-{2-Fluoro-4-[3-(3-trifluoromethyl-phenyl)-ureidomethyl]-phenoxy}-pyridine-2-carboxylic acid methylamide], the IC50 worked out at 0.027 µM.

On to `CNC(=O)c1cc(Oc2ccc(CNC(=O)Nc3ccc(C)c(Cl)c3)cc2F)ccn1` [compound 234, 4-{4-[3-(3-Chloro-4-methyl-phenyl)-ureidomethyl]-2-fluoro-phenoxy}-pyridine-2-carboxylic acid methylamide], for which the IC50 turned out to be 0.072 µM.

`CNC(=O)c1cc(Oc2ccc(CNC(=O)Nc3cc(C(F)(F)F)ccc3-n3cncn3)cc2F)ccn1` [compound 235, 4-{2-Fluoro-4-[3-(2-[1,2,4]triazol-1-yl-5-trifluoromethyl-phenyl)-ureidomethyl]-phenoxy}-pyridine-2-carboxylic acid methylamide]: the IC50 was 0.027 µM.

On to `CNC(=O)c1cc(Oc2ccc(CNC(=O)Nc3cc(C)on3)cc2)ccn1` [compound 236, 4-{4-[3-(5-Methyl-isoxazol-3-yl)-ureidomethyl]-phenoxy}-pyridine-2-carboxylic acid methylamide], for which the IC50 is 2.05 µM.

For `CNC(=O)c1cc(Oc2ccc(CNC(=O)Nc3cc(C(F)(F)F)ccc3-n3ccnc3)cc2C)ccn1` [compound 240, 4-{4-[3-(2-Imidazol-1-yl-5-trifluoromethyl-phenyl)-ureidomethyl]-2-methyl-phenoxy}-pyridine-2-carboxylic acid methylamide], the IC50 was 2.9 µM.

In the case of `CNC(=O)c1cc(Oc2ccc(CNC(=O)Nc3ccc(NC(C)=O)c(C(F)(F)F)c3)cc2)ccn1` [compound 241, 4-{4-[3-(4-Acetylamino-3-trifluoromethyl-phenyl)-ureidomethyl]-phenoxy}-pyridine-2-carboxylic acid methylamide], the IC50 was found to be 0.71 µM.

`CNC(=O)c1cc(Oc2ccc(CNC(=O)Nc3cc(C(F)(F)F)ccc3-n3ccnc3)cc2)ccn1` [compound 243, 4-{4-[3-(2-Imidazol-1-yl-5-trifluoromethyl-phenyl)-ureidomethyl]-phenoxy}-pyridine-2-carboxylic acid methylamide]: the IC50 was 9.4 µM.

A word on the IC50: it is the point on the concentration scale where inhibition reaches its midpoint.
